Values quoted from earlier work, collected in US20240189327A1, “SYNERGISTIC CANNABINOID ESTERS, THEIR SALTS AND USES THEREOF” (LONDON PHARMACEUTICALS AND RESEARCH CORPORATION, priority 2021, published 2024).

What was measured:
[1] = in vivo
intraocular pressure = conditions: normotensive rabbit
[2] = pH 7.4

For `C=C(C)[C@@H]1CCC(C)=C[C@H]1c1c(O)cc(CCCCC)cc1O` [CBD, cannabidiol], the “time to maximum plasma level” value [1] is listed as 4 to 6 h.

For `N[C@H]1C(O)O[C@H](CO)[C@@H](O)[C@@H]1O` (stereo partly shown) [glucosamine], the “time to maximum plasma level” value [1] is listed as 0.833 h.

In the case of `CCCCC/C=C\C/C=C\C/C=C\C/C=C\CCCC(=O)NCCOP(=O)(O)O` [phosphate ester pro-drug of anandamide], the “effect on intraocular pressure” value (intraocular pressure) is listed as “reduced the intraocular pressure” and the “increase of aqueous solubility over the parent endocannabinoids” value [2] is listed as > 16 500 fold.
